The results in this text go back to patent publication US20100125059A1, “1-BIARYLAZETIDINONE DERIVATIVE” (Teijin Pharma Limited, priority 2007, published 2010).

The subject of the test is hamsters fed a high cholesterol diet. Put plainly: Measurement of lipid lowering effect in hamsters fed a high cholesterol diet. The format is in vivo, Male Golden Syrian hamsters. Conditions: Mesocricetus auratus, po, 168 h, gavage once daily, 7 days. As to the method:
Male Golden Syrian hamsters are divided into groups each consisting of 6 animals and fed a controlled high cholesterol diet (CE-2 containing 0.5% cholesterol; CLEA Japan, Inc.) for 28 days at most. From the start of feeding of the high cholesterol diet, the test compounds are administered by gavage once daily. For the administration, 0.2 mL of corn oil alone per 100 g (control group) or a solution (or suspension) of the test compound in corn oil at a dose of 0.01 to 10 mg/kg was given. At the same time, a group fed with a normal diet during the same study period is handled as a normal group. 4 hours after the last administration, whole blood is collected from the abdominal aorta under light anesthesia with ether and serum is separated from the blood. Further, livers are harvested, wet liver weights are measured, and part (about 0.5 g) of the harvested livers are extracted and weighed. 2-propanol in an amount 4 times the weight of the extracted livers are added, the resulted mixtures are homogenized, and the centrifuged supernatant are recovered and used as liver-derived samples.
Serum and liver TC concentrations are determined by an enzyme method using L-type Wako CHO•H (Wako Pure Chemical Industries Ltd.) or Cholestest CHO (Daiichi Pure Chemicals Co., Ltd.). Serum TG concentrations are determined by an enzyme method using L-type Wako TG•H (Wako Pure Chemical Industries Ltd.) or Autosera S TG-N (Daiichi Pure Chemicals Co., Ltd.) and a free glycerine elimination method. LDL-C concentrations are determined by a direct method using L-type Wako LDL-C•M (Wako Pure Chemical Industries Ltd.) or Cholestest LDL (Daiichi Pure Chemicals Co., Ltd.). Human serum was commonly used as a sample for the calibration curve for determinations of serum and liver TC concentrations, serum TG concentration, and serum LDL-C concentration. The effect of the test compound is shown by a suppression rate (%) of an increase in serum TC concentration due to feeding of the high cholesterol diet, a serum TG lowering rate (%), a suppression rate (%) of an increase in serum LDL-C concentration due to feeding of the high cholesterol diet, and a suppression rate (%) of an increase in liver TC concentration due to feeding of the high cholesterol diet calculated in accordance with the following equations.
In the Equation 2, A is the control group, B is the test compound group, and C is the normal group.
In the Equation 3, A is the control group, B is the test compound group, and C is the normal group.
In the Equation 4, A is the control group, B is the test compound group, and C is the normal group.
In the Equation 5, A is the control group, and B is the test compound group.
The following results were obtained from the study by this method on the effects of lowering serum TC, LDL-C, and TG, and liver TC in the hamsters fed with a high cholesterol diet which were given the test compounds for 7 days.
The compounds in which pyridyl of compound of example 51 and 55 was exchanged for phenyl, were used as comparative compound 1 and 2, respectively. In the same method as Example 112, the suppression rate (%) of an increase in serum TC concentration of comparative compound 1 and 2 were calculated.

Where [1] appears, read: read-out: serum TC lowering effect (suppression rate of an increase in serum TC concentration).
The mark [2] stands for this setting: read-out: serum TG lowering effect (serum TG lowering rate).
Setting [3] is: read-out: liver TC lowering effect (suppression rate of an increase in liver TC concentration).
Where [4] appears, read: read-out: serum LDL-C lowering effect (suppression rate of an increase in serum LDL-C concentration).

Read-outs that look alike come from different tables or passages of the source.

Take `O=C1[C@H](SC[C@H](O)c2ccc(F)cc2)[C@@H](c2ccc(O)cc2)N1c1ccc(-c2cncnc2)cc1` [Example 10, (3R,4R)-3-[(2R)-2-(4-fluorophenyl)-2-hydroxyethylthio]-4-(4-hydroxyphenyl)-1-[4-(pyrimidin-5-yl)phenyl]azetidin-2-one]: the inhibition in vivo at 0.1 mg/kg runs as follows: under setting [1], ≥ 50%; under setting [2], ≥ 20%.
`Cc1cc(O)ccc1[C@@H]1[C@@H](SC[C@H](O)c2ccc(F)cc2)C(=O)N1c1ccc(-c2cncc(F)c2)cc1` [Example 74, (3R,4R)-3-[(2R)-2-(4-fluorophenyl)-2-hydroxyethylthio]-1-[4-(5-fluoropyridin-3-yl)phenyl]-4-(4-hydroxy-2-methylphenyl)azetidin-2-one]: the inhibition in vivo at 0.01 mg/kg under setting [3] was ≥ 30% and the inhibition in vivo at 0.01 mg/kg under setting [1] was ≥ 30%. Besides, the inhibition in vivo at 0.1 mg/kg is ≥ 50% under setting [3] and ≥ 50% under setting [4].
Regarding `O=C(CS[C@H]1C(=O)N(c2ccc(-c3cccnc3)cc2)[C@@H]1c1ccc(O)cc1)c1ccc(F)cc1` [Example 27, (3R,4R)-3-[2-(4-fluorophenyl)-2-oxoethylthio]-4-(4-hydroxyphenyl)-1-[4-(pyridin-3-yl)phenyl]azetidin-2-one], the inhibition in vivo at 0.1 mg/kg reads like this: under setting [4], ≥ 50%; under setting [1], ≥ 50%.
Take `COc1ccncc1-c1ccc(N2C(=O)[C@H](SC[C@H](O)c3ccc(F)cc3)[C@H]2c2ccc(O)cc2O)cc1` [Example 64, (3R,4R)-3-[(2R)-2-(4-fluorophenyl)-2-hydroxyethylthio]-4-(2,4-dihydroxyphenyl)-1-[4-(4-methoxypyridin-3-yl)phenyl]azetidin-2-one]: the inhibition in vivo at 0.1 mg/kg by setting is: under setting [4], ≥ 50%; under setting [1], ≥ 50%.
For the compound `N#Cc1ccc(-c2ccc(N3C(=O)[C@H](SC[C@H](O)c4ccc(Cl)cc4)[C@H]3c3ccc(O)cc3)cc2)cn1` [Example 60, 5-(4-{(3R,4R)-3-[(2R)-2-(4-chlorophenyl)-2-hydroxyethylthio]-4-(4-hydroxyphenyl)-2-oxoazetidinyl}phenyl)pyridine-2-carbonitrile], the inhibition in vivo at 0.1 mg/kg under setting [4] was ≥ 50% and the inhibition in vivo at 0.1 mg/kg under setting [2] is ≥ 20%.
In the case of `O=C1[C@H](SC[C@H](O)c2ccc(F)cc2)[C@@H](c2ccc(O)cc2)N1c1ccc(-c2ccc(C(F)(F)F)cn2)cc1` [Example 3, (3R,4R)-3-[(2R)-2-(4-fluorophenyl)-2-hydroxyethylthio]-4-(4-hydroxyphenyl)-1-[4-(5-trifluoromethylpyridin-2-yl)phenyl]azetidin-2-one], under setting [2], the inhibition in vivo at 0.1 mg/kg was ≥ 20%.
`Cc1cc(O)ccc1[C@@H]1[C@@H](SC[C@H](O)c2ccc(F)cc2)C(=O)N1c1ccc(-c2cncc(C#N)c2)cc1` [Example 80, 5-(4-{(3R,4R)-3-[(2R)-2-(4-fluorophenyl)-2-hydroxyethylthio]-4-(4-hydroxy-2-methylphenyl)-2-oxoazetidinyl}phenyl)pyridine-3-carbonitrile]: the inhibition in vivo at 0.1 mg/kg was ≥ 50% under setting [4] and ≥ 50% under setting [1].
Consider `O=C1[C@H](SC[C@H](O)c2ccc(Cl)cc2O)[C@@H](c2ccc(O)cc2)N1c1ccc(-c2cccnc2)cc1` [Example 89, (3R,4R)-3-[(2R)-2-(4-chloro-2-hydroxyphenyl)-2-hydroxyethylthio]-4-(4-hydroxyphenyl)-1-[4-(pyridin-3-yl)phenyl]azetidin-2-one], for which the inhibition in vivo at 0.1 mg/kg reads like this: under setting [4], ≥ 50%; under setting [1], ≥ 50%.
`O=C1[C@H](SC[C@H](O)c2ccc(Cl)cc2)[C@@H](c2ccc(O)cc2O)N1c1ccc(-c2cccnc2)cc1` [Example 62, (3R,4R)-3-[(2R)-2-(4-chlorophenyl)-2-hydroxyethylthio]-4-(2,4-dihydroxyphenyl)-1-[4-(pyridin-3-yl)phenyl]azetidin-2-one]: the inhibition in vivo at 0.1 mg/kg reads like this: under setting [4], ≥ 50%; under setting [1], ≥ 50%.
`O=C1[C@H](SC[C@H](O)c2ccc3c(c2)OCO3)[C@@H](c2ccc(O)cc2)N1c1ccc(-c2cccnc2)cc1` [Example 33, (3R,4R)-3-[(2R)-2-(2H-benzo[3,4-d]1,3-dioxolen-5-yl)-2-hydroxyethylthio]-4-(4-hydroxyphenyl)-1-[4-(pyridin-3-yl)phenyl]azetidin-2-one]: the inhibition in vivo at 0.1 mg/kg is ≥ 50% under setting [4] and ≥ 50% under setting [1].
Regarding `O=C1[C@H](SC[C@H](O)c2ccc(Cl)c(F)c2)[C@@H](c2ccc(O)cc2)N1c1ccc(-c2cncc(F)c2)cc1` [Example 82, (3R,4R)-3-[(2R)-2-(4-chloro-3-fluorophenyl)-2-hydroxyethylthio]-1-[4-(5-fluoropyridin-3-yl)phenyl]-4-(4-hydroxyphenyl)azetidin-2-one], the inhibition in vivo at 0.1 mg/kg is, setting by setting: under setting [4], ≥ 50%; under setting [1], ≥ 50%.
Consider `O=C1[C@H](SC[C@H](O)c2ccc(F)cc2)[C@@H](c2ccc(O)cc2)N1c1ccc(-c2cnccn2)cc1` [Example 53, (3R,4R)-3-[(2R)-2-(4-fluorophenyl)-2-hydroxyethylthio]-4-(4-hydroxyphenyl)-1-[4-(pyrazin-2-yl)phenyl]azetidin-2-one], for which the inhibition in vivo at 0.1 mg/kg under setting [4] was ≥ 50%.
With `Cc1cncc(-c2ccc(N3C(=O)[C@H](SC[C@H](O)c4ccc(F)cc4)[C@H]3c3ccc(O)cc3)cc2)c1` [Example 68, (3R,4R)-3-[(2R)-2-(4-fluorophenyl)-2-hydroxyethylthio]-4-(4-hydroxyphenyl)-1-[4-(5-methylpyridin-3-yl)phenyl]azetidin-2-one], the inhibition in vivo at 0.01 mg/kg under setting [1] was ≥ 30%. Besides, the inhibition in vivo at 0.1 mg/kg under setting [4] was ≥ 50%.
With `O=C1[C@H](SC[C@H](O)c2ccc(F)cc2)[C@@H](c2ccc(O)cc2O)N1c1ccc(-c2cncc(Cl)c2)cc1` [Example 92, (3R,4R)-3-[(2R)-2-(4-fluorophenyl)-2-hydroxyethylthio]-4-(2,4-dihydroxyphenyl)-1-[4-(5-chloropyridin-3-yl)phenyl]azetidin-2-one], the inhibition in vivo at 0.01 mg/kg by setting is: under setting [4], ≥ 30%; under setting [1], ≥ 30%. In addition, the inhibition in vivo at 0.1 mg/kg under setting [2] was ≥ 20%.
Regarding `O=C1[C@H](SC[C@H](O)c2ccccc2F)[C@@H](c2ccc(O)cc2)N1c1ccc(-c2cccnc2)cc1` [Example 77, (3R,4R)-3-[(2R)-2-(2-fluorophenyl)-2-hydroxyethylthio]-4-(4-hydroxyphenyl)-1-[4-(pyridin-3-yl)phenyl]azetidin-2-one], the inhibition in vivo at 0.1 mg/kg under setting [2] was ≥ 20%.
`O=C1[C@H](SC[C@H](O)c2ccc(Cl)cc2)[C@@H](c2ccc(O)cc2O)N1c1ccc(-c2cncc(C(F)(F)F)c2)cc1` [Example 75, (3R,4R)-3-[(2R)-2-(4-chlorophenyl)-2-hydroxyethylthio]-4-(2,4-dihydroxyphenyl)-1-[4-(5-trifluoromethylpyridin-3-yl)phenyl]azetidin-2-one]: the inhibition in vivo at 0.01 mg/kg is, setting by setting: under setting [3], ≥ 30%; under setting [4], ≥ 30%. For the same compound, the inhibition in vivo at 0.1 mg/kg is, setting by setting: under setting [3], ≥ 50%; under setting [2], ≥ 20%.
`Cc1cncc(-c2ccc(N3C(=O)[C@H](SC[C@H](O)c4ccc(F)cc4)[C@H]3c3ccc(O)cc3O)cc2)c1` [Example 93, (3R,4R)-3-[(2R)-2-(4-fluorophenyl)-2-hydroxyethylthio]-4-(2,4-dihydroxyphenyl)-1-[4-(5-methylpyridin-3-yl)phenyl]azetidin-2-one]: the inhibition in vivo at 0.01 mg/kg is ≥ 30% under setting [4] and ≥ 30% under setting [1]. Also, under setting [2], the inhibition in vivo at 0.1 mg/kg is ≥ 20%.
